The assay has as its target T1, Type-1 angiotensin II receptor (Oryctolagus cuniculus) (UniProt P34976).
T1 sequence (whole entry): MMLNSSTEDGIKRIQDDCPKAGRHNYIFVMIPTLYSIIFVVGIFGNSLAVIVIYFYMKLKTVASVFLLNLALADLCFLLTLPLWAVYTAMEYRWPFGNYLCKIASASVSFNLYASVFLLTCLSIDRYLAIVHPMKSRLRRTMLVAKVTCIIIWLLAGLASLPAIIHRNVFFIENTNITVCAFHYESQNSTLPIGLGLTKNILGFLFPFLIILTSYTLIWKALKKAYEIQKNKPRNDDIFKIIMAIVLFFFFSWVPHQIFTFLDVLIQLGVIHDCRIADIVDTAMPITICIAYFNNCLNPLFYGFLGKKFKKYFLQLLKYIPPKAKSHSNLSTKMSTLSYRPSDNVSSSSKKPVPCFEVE
The experiment in a line: In vitro for its antagonistic activity against angiotensin II type 1 receptor in Rabbit Aorta. The format is functional, tissue-based.

Each structure is given as a SMILES string. Some results are limits rather than exact numbers.

For the compound `CCCCc1nc(Cl)c(C(=O)O)n1Cc1ccc2oc(-c3ccccc3C#N)c(Br)c2c1`, the pKB was less than 6.

In turn, `CCCCc1nc(Cl)c(C(=O)O)n1Cc1ccc2oc(-c3ccccc3NS(=O)(=O)C(F)(F)F)c(Br)c2c1` displayed a pKB of 7.8.

Compound `CCCCc1nc(Cl)c(C(=O)O)n1Cc1ccc2oc(-c3ccccc3C(N)=O)c(Br)c2c1` showed a pKB of 7.2.

The compound `CCCCc1nc(Cl)c(C(=O)O)n1Cc1ccc2oc(-c3ccccc3-c3nnn(C)n3)c(Br)c2c1` displayed a pKB of 6.4.

As for `CCCCc1nc(Cl)c(C(=O)O)n1Cc1ccc2oc(-c3ccccc3-c3nn[nH]n3)c(C(F)(F)F)c2c1`, the pKB came to 10.

The compound `CCCCc1nc(Cl)c(C(=O)O)n1Cc1ccc2oc(-c3ccccc3-c3nn[nH]n3)c(C(C)(C)C)c2c1` showed a pKB of 8.3.

Compound `CCCCc1nc(Cl)c(C(=O)NC)n1Cc1ccc2oc(-c3ccccc3-c3nn[nH]n3)c(Br)c2c1` registered a pKB of 9.2.

`CCCCc1nc(Cl)c(C(N)=O)n1Cc1ccc2oc(-c3ccccc3-c3nn[nH]n3)c(Br)c2c1` had a pKB of 9.

`CCCCc1nc(Cl)c(C(=O)O)n1Cc1ccc2oc(-c3ccccc3-c3nn[nH]n3)c(OC)c2c1` showed a pKB of 9.6.

The compound `CCCCc1nc(Cl)c(C(=O)O)n1Cc1ccc2oc(-c3ccccc3-c3nnnn3C)c(Br)c2c1` yielded a pKB of 7.3.

As for `CCCCc1nc(Cl)c(C(=O)N(C)C)n1Cc1ccc2oc(-c3ccccc3-c3nn[nH]n3)c(Br)c2c1`, the pKB stood at 8.8.

Compound `CCCCc1nc(Cl)c(C(=O)O)n1Cc1ccc2oc(-c3ccccc3-c3nn[nH]n3)c(Cl)c2c1` returned a pKB of 10.5.

The compound `CCCCc1nc(Cl)c(C(=O)O)n1Cc1ccc2oc(-c3ccccc3C(=O)OCC)c(Br)c2c1` returned a pKB of 7.8.

Compound `CCCCc1nc(Cl)c(CNC(N)=O)n1Cc1ccc2oc(-c3ccccc3-c3nn[nH]n3)c(Br)c2c1` came in with a pKB of 8.8.

For the compound `CCCCc1nc(Cl)c(C(=O)OCC)n1Cc1ccc2oc(-c3ccccc3-c3nn[nH]n3)c(Br)c2c1`, the pKB was 8.3.

`CCCCc1nc(Cl)c(C(=O)O)n1Cc1ccc2oc(-c3ccccc3C(=O)Nc3nn[nH]n3)c(Br)c2c1` registered a pKB of 8.8.

As for `CCCCc1nc(Cl)c(CC(=O)O)n1Cc1ccc2oc(-c3ccccc3-c3nn[nH]n3)c(Br)c2c1`, the pKB is 9.8.

In general, pKB refers to −log10 of the KB, conventionally taken in molar units. A high value points to a low KB.

The record behind these values is ChEMBL document CHEMBL1149991, “Benzofuran based angiotensin II antagonists related to GR117289: enhancement of potency in vitro and oral activity” (Bioorg Med Chem Lett, 1993).
